Laboratory results: patent publication US20230056135A1, “MONOMER AND MULTIMERIC ANTI-HBV AGENTS” (priority 2018, published 2023)
Where two headings read alike, the source gives them in different places.

Tests used:
Format in all cases: cell-based
human PBM = assay: Cellular toxicity assay in human PBM cells
Description: (§1) The toxicity of the compounds was assessed in Vero, human PBM, CEM (human lymphoblastoid), MT-2, and HepG2 cells, as described previously (see Schinazi R. F., Sommadossi J.-P., Saalmann V., Cannon D. L., Xie M.-Y., Hart G. C., Smith G. A. & Hahn E. F. Antimicrob. Agents Chemother. 1990, 34, 1061-67). Cycloheximide was included as positive cytotoxic control, and untreated cells exposed to solvent were included as negative controls. The cytotoxicity IC50 was obtained from the concentration-response curve using the median effective method described previously (see Chou T.-C. & Talalay P. Adv. Enzyme Regul. 1984, 22, 27-55; Belen'kii M. S. & Schinazi R. F. Antiviral Res. 1994, 25, 1-11).

[1] = tested on: CEM (human lymphoblastoid); assay: Cellular toxicity assay in CEM cells
Description: as §1

Vero = assay: Cellular toxicity assay in Vero cells
Description: as §1

HepG2 cells = assay: Cellular toxicity assay in HepG2 cells
Description: as §1

wild type HBV = assay: Anti-HBV assay in AD-38 cell line (HBV in culture supernatant); settings: AD-38 cell line, Tet (-); for EC50: read-out: Anti-HBV activity EC50; for EC90: read-out: Anti-HBV activity EC90
Description: The anti-HBV activity of the compounds was determined by treating the AD-38 cell line carrying wild type HBV under the control of tetracycline (see Ladner S. K., Otto M. J., Barker C. S., Zaifert K., Wang G. H., Guo J. T., Seeger C. & King R. W. Antimicrob. Agents Chemother. 1997, 41, 1715-20). Removal of tetracycline from the medium [Tet (−)] results in the production of HBV. The levels of HBV in the culture supernatant fluids from cells treated with the compounds were compared with that of the untreated controls. Control cultures with tetracycline [Tet (+)] were also maintained to determine the basal levels of HBV expression. 3TC was included as positive control.
The median effective concentrations (EC50) ranges of several of the compounds described herein against HBV are shown in Table 3: […]

[2] = tested on: HBV replication in HepAD38 cells; assay: Drug-drug combination, inhibition of HBV replication in HepAD38 cells
HBV = assay: Antiviral activity in HepG2-NTCP infectious system; settings: Hepatitis B virus, 264 h
Description: (§2) Antiviral Activity in HepG2-NTCP Infectious System: HepG2-NTCP (Clone 7) cells were pretreated with antivirals for 30 min prior infection for 24 h with stock concentrated virus produced from HepAD38 at a dose of ˜300 virus genome equivalent (VGE) per cell in the presence of media containing 4% polyethylene glycol 8000 (PEG) and 2% DMSO. After 24 h, virus inoculum with or without antiviral agents were washed out from cells and media in the presence of 4% PEG and 2% DMSO, with or without antiviral agents were replenished every two days until day 11. Cells and supernatants were harvested and tested for intracellular HBV DNA, pregenomic (pg) RNA, surface RNA, and secreted HBeAg (ELISA).

[3] = Cytotoxicity (rDNA) in HepG2-NTCP infectious system; settings: human, HepG2-NTCP (Clone 7) cells infected with HBV, day 11, read-out: HBV DNA/rDNA CC50
Description: as §2

[4] = Cellular toxicity assay in human PBM cells; settings: human, human PBM cells; read-out: Cytotoxicity; CC50 (μM) PBM
Description: as §1

[5] = Cellular toxicity assay in HepG2 cells; settings: human, HepG2 cells; read-out: Cytotoxicity; CC50 (μM) HepG2
Description: as §1

Glutathione levels (GSH) = assay: Glutathione levels in Huh7 cells (GSH-Glo Glutathione Assay); settings: for GSH levels relative to untreated control: 22 h treatment; for inhibition at 10 µM: Homo sapiens, Huh-7, read-out: GSH levels relative to untreated control (% inhibition at 10 μM), 22 h, 10 μM
Description: Glutathione levels (GSH) were measured in Huh7 cells after 22 h treatment with 10 μM CAMs (GSH-Glo™ Glutathione Assay—Promega). Treatment of Huh7 with 10 μM positive control, L-buthionine-sulfoximine, reduced cellular GSH levels by 58% (data not shown); Samples were tested in triplicates.

[6] = human PBM cells, read-out: Cytotoxicity, CC50 (μM) PBM
[7] = CEM cells, read-out: Cytotoxicity, CC50 (μM) CEM
[8] = Vero cells, read-out: Cytotoxicity, CC50 (μM) VERO
[9] = HepG2 cells, read-out: Cytotoxicity, CC50 (μM) HepG2
[10] = read-out: HBV DNA/rDNA EC50 (nM)
[11] = read-out: HBV RNA EC50, nM pgRNA
[12] = read-out: HBV RNA EC50, nM sRNA

## Cc1c(C(=O)C(=O)NCc2cn(CCCCCCCCn3cc(CNC(=O)C(=O)c4c(C)c(C(=O)Nc5ccc(F)c(F)c5)n(C)c4C)nn3)nn2)c(C)n(C)c1C(=O)Nc1ccc(F)c(F)c1 [Compound 9, 4,4′-(2,2′-(((Octane-1,8-diylbis(1H-1,2,3-triazole-1,4-diyl))bis(methylene))bis(azanediyl))bis(2-oxoacetyl))bis(N-(3,4-difluorophenyl)-1,3,5-trimethyl-1H-pyrrole-2-carboxamide)]
Human PBM; [6]
  CC50: 26.4 µM
[1]; [7]
  CC50: > 100 µM
Vero; [8]
  CC50: > 100 µM
HepG2 cells; [9]
  CC50: > 100 µM
Wild type HBV
  EC50: 100 to 1000 nM
  EC90: 1000 to 10000 nM

## C=C1[C@H](CO)[C@@H](O)C[C@@H]1n1cnc2c(=O)[nH]c(N)nc21 [ETV, Entecavir, reference compound]
[2]; Hepatitis B virus, HePAD38
  EC50: 0.04 nM
  EC90: 12.9 nM
HBV; [10]
  EC50: < 1 nM
HBV; [11]
  EC50: > 1000 nM
HBV; [12]
  EC50: > 1000 nM
HBV; read-out: HBeAg EC50, nM
  EC50: > 1000 nM
[3]
  CC50 at 11 days: > 1000 nM

## C#CCNC(=O)C(=O)c1c(C)c(C(=O)Nc2ccc(F)c(F)c2)n(CC#C)c1C [Compound 114, N-(3,4-Difluorophenyl)-3,5-dimethyl-4-(2-oxo-2-(prop-2-yn-1-ylamino)acetyl)-1-(prop-2-yn-1-yl)-1H-pyrrole-2-carboxamide]
[4]
  CC50: > 100 µM
[5]
  CC50: > 100 µM
Wild type HBV; Hepatitis B virus
  EC50: 0.1 to 1 nM
HBV; [10]
  EC50: 0.6 nM
HBV; [11]
  EC50: 79.6 nM
HBV; [12]
  EC50: 67.8 nM
HBV; read-out: HBeAg EC50, nM
  EC50: 488 nM
[3]
  CC50 at 11 days: > 1000 nM
Glutathione levels (GSH)
  GSH levels relative to untreated control: > 10 µM
  inhibition at 10 µM: 27%

## O=C(NC(Br)=C(C(=O)N1CCCCC1)c1ccccc1OCCCCCCCCCCCCOc1ccccc1C(C(=O)N1CCCCC1)=C(Br)NC(=O)c1ccc([N+](=O)[O-])cc1)c1ccc([N+](=O)[O-])cc1 [Compound 28]
Human PBM
  CC50: > 100 µM
[1]
  CC50: > 100 µM
Vero
  CC50: > 100 µM
HepG2 cells
  CC50: > 100 µM
Wild type HBV
  EC50: 1000 to 10000 nM

## CCOC(=O)C1=C(CNCc2cn(CCCCCCCCn3cc(CNC(=O)C(=O)c4c(C)c(C(=O)Nc5ccc(F)c(F)c5)n(C)c4C)nn3)nn2)NC(c2nccs2)=NC1c1ccc(F)cc1Br (centres unmarked) [Compound 20, Ethyl 4-(2-bromo-4-fluorophenyl)-6-((((1-(8-(4-((2-(5-((3,4-difluorophenyl)-carbamoyl)-1,2,4-trimethyl-1H-pyrrol-3-yl)-2-oxoacelamido)methyl)-1H-1,2,3-triazol-1-yl)octyl)-1H-1,2,3-triazol-4-yl)methyl)amino)methyl)-2-(thiazol-2-yl)-1,4-dihydropyrimidine-5-carboxylate]
Human PBM
  CC50: 33 µM
[1]
  CC50: > 100 µM
Vero
  CC50: > 100 µM
HepG2 cells
  CC50: > 100 µM
Wild type HBV
  EC50: 10 to 100 nM
  EC90: 1000 to 10000 nM

## Cc1c(C(=O)C(=O)NCc2cn(CCCCCCCCCCCCn3cc(CNC(=O)C(=O)c4c(C)c(C(=O)Nc5ccc(F)c(F)c5)n(C)c4C)nn3)nn2)c(C)n(C)c1C(=O)Nc1ccc(F)c(F)c1 [Compound 53, 4,4′-(2,2′-(((Dodecane-1,12-diylbis(1H-1,2,3-triazole-1,4-diyl))bis(methylene))bis(azanediyl))bis(2-oxoacetyl))bis(N-(3,4-difluorophenyl)-1,3,5-trimethyl-1H-pyrrole-2-carboxamide)]
Human PBM; [6]
  CC50: 35 µM
[1]; [7]
  CC50: 45 µM
Vero; [8]
  CC50: > 100 µM
HepG2 cells; [9]
  CC50: > 100 µM
Wild type HBV
  EC50: 0.1 to 1 nM
  EC90: 10 to 100 nM
[2]; HepAD38 cells, combinations at ratio 1:1, read-out: EC50
  EC50: 0.02 nM
[2]; HepAD38 cells, combinations at ratio 1:1, read-out: EC90
  EC90: 5.29 nM

## C#CCn1c(C)c(C(=O)C(=O)NC(C#C)(CC)CC)c(C)c1C(=O)Nc1ccc(F)c(F)c1 [Compound 115, N-(3,4-Difluorophenyl)-4-(2-((3-ethylpent-1-yn-3-yl)amino)-2-oxoacetyl)-3,5-dimethyl-1-(prop-2-yn-1-yl)-1H-pyrrole-2-carboxamide]
[4]
  CC50: 45 µM
[5]
  CC50: 35 µM
Wild type HBV; Hepatitis B virus
  EC50: 0.1 to 1 nM
Glutathione levels (GSH)
  GSH levels relative to untreated control: > 10 µM
  inhibition at 10 µM: < 1%
